One may read the IC50 as the concentration needed to halve the response being measured.

This assay addresses recombinant DYRK1A kinase (Homo sapiens (Human), UniProt Q13627). Briefly: DYRK1A kinase assay (Ser/Thr 18 peptide Z-lyte FRET assay). The assay is classed as biochemical. Particulars: DYRK1A 0.25 μg/mL, ATP 15 μM, Ser/Thr peptide 18 4 μM; one hour at room temperature; 11-point dose-response, duplicate. The procedure:
Representative compounds were screened using the assay procedure for DYRK1A kinase activity as described below.
Each compound was dissolved in DMSO as a 10 mM stock and used to prepare compound source plates.
This is a non-radioactive assay using fluorescence resonance energy transfer (FRET) between coumarin and fluorescein to detect kinase activity which is represented as a ratio of coumarin emission/fluorescein emission.
The mixture was allowed to incubate with the representative compounds for one hour at room temperature. All reactions were performed in duplicate. Unphosphorylated (“0% Control”) and phosphorylated (“100% control”) forms of Ser/Thr 18 served as control reactions. Additionally, an 11-point dose-response curve of Staurosporine (1 uM top) was run to serve as a positive compound control.
After incubation, Development Reagent A was diluted in Development Buffer then added to the reaction and allowed to further incubate for one hour at room temperature.
Dose-response curves were generated, and inhibitory concentration (IC50) values were calculated using non-linear regression curve fit in the Dotmatics' Studies Software (Bishops Stortford, UK).
As for `CCNc1nc(N[C@@H]2CCN(C)CC2(F)F)nn2ccc(-c3ccc4nc(C)n(CC(F)F)c4n3)c12` [Compound 483, (R)—N^2-(3,3-difluoro-1-methylpiperidin-4-yl)-5-(3-(2,2-difluoroethyl)-2-methyl-3H-imidazo[4,5-b]pyridin-5-yl)-N^4-ethylpyrrolo[2,1-f][1,2,4]triazine-2,4-diamine], the concentration for half-maximal inhibition (IC50) was 3.6 nM.
Under `CNc1nc(N[C@H]2CN(C)C[C@H]2F)nn2ccc(-c3ccc4nc(C)n(CC(F)F)c4n3)c12` [Compound 197, 5-(3-(2,2-Difluoroethyl)-2-methyl-3H-imidazo[4,5-b]pyridin-5-yl)-N^2-((3S,4R)-4-fluoro-1-methylpyrrolidin-3-yl)-N^4-methylpyrrolo[2,1-f][1,2,4]triazine-2,4-diamine] stands 2 nM; under `CNc1nc(N[C@@H]2CN(C3COC3)CC2(F)F)nn2ccc(-c3ccc4nnn(CC(F)F)c4n3)c12` [Compound 1028, (R)—N^2-(4,4-Difluoro-1-(oxetan-3-yl)pyrrolidin-3-yl)-5-(3-(2,2-difluoroethyl)-3H-[1,2,3]triazolo[4,5-b]pyridin-5-yl)-N^4-methylpyrrolo[2,1-f][1,2,4]triazine-2,4-diamine], 1.3 nM; under `CNc1nc(NC2CCC3(CC2)COC3)nn2ccc(-c3ccc4nc(C)n(CC(F)F)c4n3)c12` [Compound 225, 5-(3-(2,2-Difluoroethyl)-2-methyl-3H-imidazo[4,5-b]pyridin-5-yl)-N^4-methyl-N^2-(2-oxaspiro[3.5]nonan-7-yl)pyrrolo[2,1-f][1,2,4]triazine-2,4-diamine], 0.8 nM.
As for `C[C@]1(O)CC[C@H](Nc2nc(N)c3c(-c4ccc5nnn(CC(F)F)c5n4)ccn3n2)CC1` [Compound 816, (1r,4r)-4-((4-Amino-5-(3-(2,2-difluoroethyl)-3H-[1,2,3]triazolo[4,5-b]pyridin-5-yl)pyrrolo[2,1-f][1,2,4]triazin-2-yl)amino)-1-methylcyclohexan-1-ol], the concentration for half-maximal inhibition (IC50) was determined as 1.3 nM.
Consider `CNc1nc(N[C@H]2C[C@H](C(C)(C)O)C2)nn2ccc(-c3ccc4nc(C)n(CC(F)F)c4n3)c12` [Compound 355, 2-(trans-3-((5-(3-(2,2-Difluoroethyl)-2-methyl-3H-imidazo[4,5-b]pyridin-5-yl)-4-(methylamino)pyrrolo[2,1-f][1,2,4]triazin-2-yl)amino)cyclobutyl)propan-2-ol], for which the IC50 stood at 4.2 nM.
As for `CC(=O)N1CC[C@H](Nc2nc(N)c3c(-c4ccc5nc(C)n(CC(F)(F)F)c5n4)ccn3n2)[C@H](F)C1` [Compound 777, 1-((3R,4S)-4-((4-Amino-5-(2-methyl-3-(2,2,2-trifluoroethyl)-3H-imidazo[4,5-b]pyridin-5-yl)pyrrolo[2,1-f][1,2,4]triazin-2-yl)amino)-3-fluoropiperidin-1-yl)ethan-1-one], the IC50 was found to be 1.2 nM.
The figure for `CNc1nc(N[C@@H]2CCN(C(C)=O)CC2(F)F)nn2ccc(-c3ccc4nc(C)n(CC(F)(F)F)c4n3)c12` [Compound 1024, (R)-1-(3,3-Difluoro-4-((5-(2-methyl-3-(2,2,2-trifluoroethyl)-3H-imidazo[4,5-b]pyridin-5-yl)-4-(methylamino)pyrrolo[2,1-f][1,2,4]triazin-2-yl)amino)piperidin-1-yl)ethan-1-one] is 1 nM.
In the case of `Cc1nc2ccc(-c3ccn4nc(N[C@@H]5CCN(C)CC5(F)F)nc(NC(C)C)c34)nc2n1CC(F)F` [Compound 485, (R)—N^2-(3,3-Difluoro-1-methylpiperidin-4-yl)-5-(3-(2,2-difluoroethyl)-2-methyl-3H-imidazo[4,5-b]pyridin-5-yl)-N^4-isopropylpyrrolo[2,1-f][1,2,4]triazine-2,4-diamine], the IC50 amounted to 7.3 nM.
Consider `CN1CC[C@@H](Nc2nc(N)c3c(-c4ccc5nnn(CC(F)F)c5n4)ccn3n2)C(F)(F)C1` [Compound 850, (R)—N^2-(3,3-Difluoro-1-methylpiperidin-4-yl)-5-(3-(2,2-difluoroethyl)-3H-[1,2,3]triazolo[4,5-b]pyridin-5-yl)pyrrolo[2,1-f][1,2,4]triazine-2,4-diamine], for which the half-maximal inhibitory concentration (IC50) stood at 0.6 nM.
As for `CNc1nc(N[C@H]2CC[C@](C)(O)CC2)nn2ccc(-c3ccc4nnn(CC(F)(F)F)c4n3)c12` [Compound 1031, (1r,4r)-1-Methyl-4-((4-(methylamino)-5-(3-(2,2,2-trifluoroethyl)-3H-[1,2,3]triazolo[4,5-b]pyridin-5-yl)pyrrolo[2,1-f][1,2,4]triazin-2-yl)amino)cyclohexan-1-ol], the IC50 worked out at 4 nM.
Under `CNc1nc(N[C@@H]2CCN(C3COC3)CC2(F)F)nn2ccc(-c3ccc4ncn(CC(F)F)c4n3)c12` [Compound 1013, (R)—N^2-(3,3-Difluoro-1-(oxetan-3-yl)piperidin-4-yl)-5-(3-(2,2-difluoroethyl)-3H-imidazo[4,5-b]pyridin-5-yl)-N4-methylpyrrolo[2,1-f][1,2,4]triazine-2,4-diamine] stands 0.9 nM; under `CNc1nc(N[C@H]2CCN(C3COC3)C[C@H]2F)nn2ccc(-c3ccc4ncn(CC(F)F)c4n3)c12` [Compound 1009, 5-(3-(2,2-Difluoroethyl)-3H-imidazo[4,5-b]pyridin-5-yl)-N^2-((3R,4S)-3-fluoro-1-(oxetan-3-yl)piperidin-4-yl)-N4-methylpyrrolo[2,1-f][1,2,4]triazine-2,4-diamine], 2 nM; under `Nc1nc(N[C@H]2CCN(C3COC3)C[C@H]2F)nn2ccc(-c3ccc4nnn(CC(F)F)c4n3)c12` [Compound 842, 5-(3-(2,2-Difluoroethyl)-3H-[1,2,3]triazolo[4,5-b]pyridin-5-yl)-N^2-((3R,4S)-3-fluoro-1-(oxetan-3-yl)piperidin-4-yl)pyrrolo[2,1-f][1,2,4]triazine-2,4-diamine], 1.5 nM.
For `CNc1nc(NC2CCC(F)(F)CC2)nn2ccc(-c3ccc4nc(C)n(CC(F)F)c4n3)c12` [Compound 182, N^2-(4,4-Difluorocyclohexyl)-5-(3-(2,2-difluoroethyl)-2-methyl-3H-imidazo[4,5-b]pyridin-5-yl)-N^4-methylpyrrolo[2,1-f][1,2,4]triazine-2,4-diamine], the IC50 was found to be 12 nM.
As to `CNc1nc(N[C@@H]2CCN(C3CC(F)(F)C3)C[C@@H]2F)nn2ccc(-c3ccc4nc(C)n(CC(F)F)c4n3)c12` [Compound 380, N^2-((3S,4R)-1-(3,3-Difluorocyclobutyl)-3-fluoropiperidin-4-yl)-5-(3-(2,2-difluoroethyl)-2-methyl-3H-imidazo[4,5-b]pyridin-5-yl)-N^4-methylpyrrolo[2,1-f][1,2,4]triazine-2,4-diamine], the IC50 stood at 3.2 nM.
Regarding `CNc1nc(N[C@@H]2CCN(C3COC3)CC2(F)F)nn2ccc(-c3ccc4ncn(CC(F)(F)F)c4n3)c12` [Compound 1019, (R)—N^2-(3,3-Difluoro-1-(oxetan-3-yl)piperidin-4-yl)-N^4-methyl-5-(3-(2,2,2-trifluoroethyl)-3H-imidazo[4,5-b]pyridin-5-yl)pyrrolo[2,1-f][1,2,4]triazine-2,4-diamine], the half-maximal inhibitory concentration (IC50) was determined as 1.7 nM.
On to `Cc1nc2ccc(-c3ccn4nc(N[C@@H]5CCNCC5(F)F)nc(NC(C)C)c34)nc2n1CC(F)F` [Compound 484, (R)-5-(3-(2,2-Difluoroethyl)-2-methyl-3H-imidazo[4,5-b]pyridin-5-yl)-N^2-(3,3-difluoropiperidin-4-yl)-N^4-isopropylpyrrolo[2,1-f][1,2,4]triazine-2,4-diamine], for which the IC50 came to 6.4 nM.
Regarding `Cc1nc2ccc(-c3ccn4nc(N[C@@H]5CCN(C6COC6)CC5(F)F)nc(N)c34)nc2n1CCF` [Compound 999, (R)—N^2-(3,3-Difluoro-1-(oxetan-3-yl)piperidin-4-yl)-5-(3-(2-fluoroethyl)-2-methyl-3H-imidazo[4,5-b]pyridin-5-yl)pyrrolo[2,1-f][1,2,4]triazine-2,4-diamine], the IC50 was determined as 1.8 nM.
Under `CNc1nc(N[C@@H]2[C@@H]3CNC[C@@H]32)nn2ccc(-c3ccc4nc(C)n(CC(F)F)c4n3)c12` [Compound 219, N^2-((1R,5S,6r)-3-Azabicyclo[3.1.0]hexan-6-yl)-5-(3-(2,2-difluoroethyl)-2-methyl-3H-imidazo[4,5-b]pyridin-5-yl)-N^4-methylpyrrolo[2,1-f][1,2,4]triazine-2,4-diamine] stands 6.7 nM; under `CNc1nc(N[C@H]2CC[C@](C)(O)CC2)nn2ccc(-c3ccn4nccc4n3)c12` [Compound 20, trans-1-Methyl-4-((4-(methylamino)-5-(pyrazolo[1,5-a]pyrimidin-5-yl)pyrrolo[2,1-f][1,2,4]triazin-2-yl)amino)cyclohexan-1-ol], 2.5 nM; under `Cc1nc2ccc(-c3ccn4nc(N[C@H]5CC[C@](C)(O)CC5)nc(N)c34)nc2n1CC(F)F` [Compound 692, (1r,4r)-4-((4-Amino-5-(3-(2,2-difluoroethyl)-2-methyl-3H-imidazo[4,5-b]pyridin-5-yl)pyrrolo[2,1-f][1,2,4]triazin-2-yl)amino)-1-methylcyclohexan-1-ol], 0.9 nM.
Consider `CNc1nc(N[C@@H]2CCN(C)CC2(F)F)nn2ccc(-c3ccn4nccc4n3)c12` [Compound 44, (R)—N^2-(3,3-Difluoro-1-methylpiperidin-4-yl)-N^4-methyl-5-(pyrazolo[1,5-a]pyrimidin-5-yl)pyrrolo[2,1-f][1,2,4]triazine-2,4-diamine], for which the IC50 worked out at 5.8 nM.
On to `CNc1nc(N[C@H]2CC[C@@]3(CCO3)CC2)nn2ccc(-c3ccc4nc(C)n(CC(F)F)c4n3)c12` [Compound 226, 5-(3-(2,2-Difluoroethyl)-2-methyl-3H-imidazo[4,5-b]pyridin-5-yl)-N^4-methyl-N^2-((4r,7r)-1-oxaspiro[3.5]nonan-7-yl)pyrrolo[2,1-f][1,2,4]triazine-2,4-diamine], for which the concentration for half-maximal inhibition (IC50) is 2 nM.
